In the supplement of paper PMC8882468:
± gives the standard deviation of the averaged measurements.

Assays:
HCI-025 = organoid from a breast cancer xenograft; assay: CTG-3D luminescence at 96 h relative to day-0 seeding control (ratio to day 0); higher = more growth / less cytotoxicity
Procedure: (§1)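 PDxO 3D drug screen (set 2), 8-point dose, 96 h; CTG-3D luminescence normalised to day-0 seeding control (mean of 4 wells each).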

HCI-005.E2 = organoid from a breast cancer xenograft with a HER2-positive history; assay: as above
Procedure: as §1

CC/C(=C(\c1ccc(O)cc1)c1ccc(OCCN(C)C)cc1)c1ccccc1 [4-hydroxytamoxifen]
CTG-3D luminescence at 96 h, HCI-025
Settings	12.5 pM	0.00025 µM	0.005 µM	0.1 µM	1 µM	10 µM	100 µM	625 fM
days in culture: 175	1.51	1.63	1.71	2.13	2.44	1.28	0.0136	1.6
days in culture: 189	2.13	1.92	1.2	1.78	1.33	0.709	0.00308	2.68
days in culture: 212	1.57	0.956	1.22	1.48	0.341	1.41	0.0176	1.14
days in culture: 224	2.08	1.8	1.69	1.65	2.16	0.525	0.00432	1.85

HCI-005.E2
Settings	CTG-3D luminescence at 96 h
12.5 pM	1.68 ± 0.34
0.00025 µM	1.99 ± 0.4
0.005 µM	2.22 ± 0.4
0.1 µM	2.35 ± 0.56
1 µM	2.26 ± 0.97
10 µM	2.01 ± 0.43
100 µM	0.0139 ± 0.0031
625 fM	2.45 ± 0.34
